The nature of data set [1]: Time resolved luminescence measurement of terbium (III) complexes (luminescence, lifetime, water coordination number). The data set is classed as physicochemical. Conditions: terbium (III) complex. The procedure:
Compounds 8, 11 and 15 each were dissolved in dimethyl sulfoxide to prepare 10 mM stock solutions. In addition, terbium (III) chloride hexahydrate was dissolved in dimethyl sulfoxide to prepare a 10 mM stock solution. Equal volumes of the terbium (III) chloride hexahydrate solution prepared were added to the individually prepared solutions of Compounds 8, 11 and 15, and, the resulting solutions were left standing for 30 minutes at room temperature to prepare terbium (III) complexes of Compounds 8, 11 and 15. The solutions were diluted using a 100 mM HEPES buffer (pH 7.4), and the luminescences of 8 μM solutions were measured.
(§1) Luminescences were measured using a time resolved measurement. Luminescences were measured for all complexes at an excitation wavelength of 330 nm, a delay time of 0.05 ms and a gate time of 1.00 ms. In addition, the luminescence lifetimes were measured using an excitation wavelength of […], and the luminescence wavelengths were measured using 545 nm for individual terbium complexes and 615 nm for individual europium complexes [100 mM HEPES buffer (pH 7.4) in each 8 μM].
The luminescence spectra of the terbium (III) complexes of Compounds 8, 11 and 15 are shown in FIG. 11, and their luminescence life and water coordination numbers are shown in Table 1.

Data set [2] can be described thus: Time resolved luminescence measurement of europium (III) complexes (luminescence, lifetime, water coordination number). The settings on record: europium (III) complex. The data set is classed as physicochemical. On the procedure:
Compounds 8, 11 and 15 each were dissolved in dimethylsulfoxide to prepare 10 mM stock solutions. In addition, europium (III) chloride hexahydrate was dissolved in dimethylsulfoxide to prepare a 10 mM stock solution. Equal volumes of the europium (III) chloride hexahydrate solution were added to the individually prepared solutions of Compounds 8, 11 and 15, and the resulting solutions were left standing for 30 minutes at room temperature to prepare the europium (III) complexes of the Compounds 8, 11 and 15. These solutions were diluted using 100 mM HEPES buffer solution (pH 7.4), and the luminescences of the 8 μM solutions were measured.
as §1
In addition, the luminescence spectra of the europium (III) complexes of Compounds 8, 11 and 15 are shown in FIG. 12, and their luminescence life and water coordination numbers are shown in Table 2.

Setting [3] is: 8 μM, 100 mM HEPES buffer (pH 7.4), excitation 330 nm, delay time 0.05 ms, gate time 1.00 ms.

On to `Cc1cc(=O)[nH]c2cc(NC(=O)CN(CCN(CCN(CC(=O)O)CC(=O)O)CC(=O)O)CC(=O)O)ccc12` [DTPA-cs124], for which the Water coordination number in data set [1] is reported as 1.23; in data set [2], 1.34. Also, the “Life time (H2O)” value in data set [1] (8 μM in 100 mM HEPES buffer (pH 7.4), luminescence wavelength 545 nm, H2O) was determined as 1.46 ms; in data set [2] (8 μM in 100 mM HEPES buffer (pH 7.4), luminescence wavelength 615 nm, H2O), 0.59 ms. Further, the “Luminescence emission (intensity)” value in data set [1] (setting [3]) and in data set [2] (setting [3]) was “almost identical” in each case. For the same compound, the “Life time (D2O)” value in data set [1] (luminescence wavelength 545 nm, D2O) worked out at 2.55 ms; in data set [2] (luminescence wavelength 615 nm, D2O) it was 2.38 ms.

The values above are taken from patent US20060149043A1, “Fluorescent lanthadine complex” (Japan Science and Technology Agency, priority 2003, published 2006).
